Results from ChEMBL document CHEMBL1201862, “PubChem BioAssay data set” (2004).
Activity calls are given as the source filed them.

Experiments:
[1] = target: Vascular endothelial growth factor receptor 2 (Homo sapiens, UniProt P35968); format: functional
[2] = target: Macrophage colony-stimulating factor 1 receptor (Homo sapiens, UniProt P07333); format: functional;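 note: value comes from the Navigating the Kinome screening panel, CSF1R member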
[3] = target: Cyclin-dependent kinase 19 (Homo sapiens, UniProt Q9BWU1); assay: Navigating the Kinome. Panel member name: CDC2L6; format: functional
[4] = target: Dual specificity protein kinase CLK4 (Homo sapiens, UniProt Q9HAZ1); format: functional
[5] = loss of viability in HepG2 cells – cell-based, CellTiter-Glo, cherry-picked, cytotoxicity control for Shn3 inhibitor project, dose response (AID 624134); format: functional
[6] = target: Sphingosine 1-phosphate receptor 1 (Homo sapiens, UniProt P21453); format: functional;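 note: Tango beta-arrestin reporter U2OS cells stimulated with S1P near its EC80; inhibitor potency meaning antagonism of receptor activation by the natural agonist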
Sequence of Sphingosine 1-phosphate receptor 1 (P21453 whole entry): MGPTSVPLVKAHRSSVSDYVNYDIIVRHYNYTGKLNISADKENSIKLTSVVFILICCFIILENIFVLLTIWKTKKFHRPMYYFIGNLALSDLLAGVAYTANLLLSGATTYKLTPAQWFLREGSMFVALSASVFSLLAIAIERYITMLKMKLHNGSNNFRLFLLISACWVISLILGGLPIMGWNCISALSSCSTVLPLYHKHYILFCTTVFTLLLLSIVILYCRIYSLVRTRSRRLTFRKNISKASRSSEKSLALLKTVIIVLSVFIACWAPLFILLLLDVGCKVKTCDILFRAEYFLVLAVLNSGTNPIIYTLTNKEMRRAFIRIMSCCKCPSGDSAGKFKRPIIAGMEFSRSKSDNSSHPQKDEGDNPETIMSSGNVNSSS

[7] = EF1alpha-driven Renilla reporter with control 3'UTR suppression – Clone20-Shn3RL cells, dual-Glo, cherry-pick, set 2, counter-screen for Shn3 3'UTR targeting project, dose response (AID 720724); format: functional, cell-based; settings: Dual-Go Shn3RL
[8] = Trypanosoma cruzi growth suppression in host cells – NIH3T3 host cells, beta-gal luminescence, confirmation (AID 2044); format: functional, cell-based;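 note: intracellular parasites grown in NIH/3T3 mouse fibroblasts as host cells; luminescent beta-galactosidase reporter signal from transgenic T. cruzi replicating inside host cells; inhibitors lower the luminescence signal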
[9] = A Cell Based Secondary Assay to Explore Cytotoxicity in HepG2 Cells of Compounds that Modulate Mycobacterium tuberculosis in Media Containing Glycerol versus Media without Glycerol (2).; format: functional
[10] = target: T1, Sphingosine 1-phosphate receptor 4 (Homo sapiens, UniProt O95977); assay: Fluorescence dose response cell-based high throughput screening assay for antagonists of the Sphingosine 1-Phosphate Receptor 4 (S1P4). [Related pubchem assays: 1524 (Confirmation in triplicates.), 1510 (Primary screen.)]; format: functional
T1 sequence (O95977 whole entry): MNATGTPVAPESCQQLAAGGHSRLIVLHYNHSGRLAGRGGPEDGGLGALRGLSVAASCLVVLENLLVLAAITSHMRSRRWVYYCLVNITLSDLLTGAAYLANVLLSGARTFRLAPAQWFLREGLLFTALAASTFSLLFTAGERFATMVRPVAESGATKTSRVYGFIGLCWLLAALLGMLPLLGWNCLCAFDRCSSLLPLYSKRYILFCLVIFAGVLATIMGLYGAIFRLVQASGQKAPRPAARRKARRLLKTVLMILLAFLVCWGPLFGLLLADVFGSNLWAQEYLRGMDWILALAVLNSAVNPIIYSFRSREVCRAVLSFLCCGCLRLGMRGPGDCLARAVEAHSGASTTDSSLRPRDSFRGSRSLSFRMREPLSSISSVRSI

[11] = Shn3 3'UTR reporter signal decrease – cell-based, Clone20 osteoblasts, firefly luciferase, cherry-pick, set 2, Schnurri-3 inhibitor project, dose response (AID 720490); format: functional;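 note: actives lower the luminescence signal as inhibitors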
[12] = reduction of Shn3 3'UTR-driven luciferase in osteoblasts – cell-based, Clone20 osteoblasts, firefly luciferase, cherry-picked, dose response (AID 624132); format: functional;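 note: firefly luciferase luminescence from reporter carrying the Shn3 3'UTR in osteoblasts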
Protein RecA = target: T2, Protein RecA (Mycobacterium tuberculosis, UniProt P9WHJ3); assay: Fluorescence Cell-Free Homogeneous Dose Retest to Identify Inhibitors of RecA-Intein Splicing Activity. [Related pubchem assays (depositor defined):AID2097, AID2223, AID489010, AID492950]; format: functional
T2 sequence (P9WHJ3 whole entry): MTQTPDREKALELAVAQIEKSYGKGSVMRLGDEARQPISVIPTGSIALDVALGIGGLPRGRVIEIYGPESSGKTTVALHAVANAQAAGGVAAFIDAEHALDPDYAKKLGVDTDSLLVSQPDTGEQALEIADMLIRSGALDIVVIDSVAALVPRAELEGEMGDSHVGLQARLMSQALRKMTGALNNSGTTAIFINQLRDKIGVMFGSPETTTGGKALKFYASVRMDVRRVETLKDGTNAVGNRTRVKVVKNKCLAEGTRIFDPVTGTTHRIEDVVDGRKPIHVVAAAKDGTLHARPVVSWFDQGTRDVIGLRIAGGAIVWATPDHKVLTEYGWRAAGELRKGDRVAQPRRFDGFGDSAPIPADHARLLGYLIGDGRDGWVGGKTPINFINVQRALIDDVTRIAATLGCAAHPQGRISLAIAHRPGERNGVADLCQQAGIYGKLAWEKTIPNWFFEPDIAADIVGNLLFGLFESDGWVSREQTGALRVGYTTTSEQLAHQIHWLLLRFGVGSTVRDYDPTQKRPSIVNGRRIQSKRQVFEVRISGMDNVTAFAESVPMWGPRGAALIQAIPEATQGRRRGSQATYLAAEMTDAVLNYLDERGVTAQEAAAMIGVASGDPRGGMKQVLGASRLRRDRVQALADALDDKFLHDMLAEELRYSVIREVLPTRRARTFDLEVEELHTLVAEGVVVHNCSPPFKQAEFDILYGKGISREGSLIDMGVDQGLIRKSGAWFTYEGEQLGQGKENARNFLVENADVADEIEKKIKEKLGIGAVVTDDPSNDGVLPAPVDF

[13] = microbe, parasite or virus in culture; format: functional; settings: Mycobacterium tuberculosis
[14] = NIH3T3 cell viability loss – ATP luminescence, mouse fibroblasts, counter-screen, dose response (AID 2010); format: functional, cell-based;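 note: cells exposed to compound for about 90 hours before reading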
[15] = NIH-3T3 fibroblast cytotoxicity, dose response, cytotoxicity control, cell-based, fluorescence, Alamar Blue, secondary assay (AID 2327); format: functional;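 note: NIH-3T3 mouse fibroblasts cultured with fluconazole at 8 µg/mL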
Paired box protein Pax-8 = Paired box protein Pax-8 (Homo sapiens, UniProt Q06710); assay: PAX8 transcriptional activity inhibition in RMG-I – RMG-I cells, luciferase, cherry-pick, dose response (AID 687027); format: functional, cell-based;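 note: luciferase reporter driven by Pax8 target thyroperoxidase promoter measured by SteadyGlo luminescence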
Sequence of Paired box protein Pax-8 (Q06710 whole entry): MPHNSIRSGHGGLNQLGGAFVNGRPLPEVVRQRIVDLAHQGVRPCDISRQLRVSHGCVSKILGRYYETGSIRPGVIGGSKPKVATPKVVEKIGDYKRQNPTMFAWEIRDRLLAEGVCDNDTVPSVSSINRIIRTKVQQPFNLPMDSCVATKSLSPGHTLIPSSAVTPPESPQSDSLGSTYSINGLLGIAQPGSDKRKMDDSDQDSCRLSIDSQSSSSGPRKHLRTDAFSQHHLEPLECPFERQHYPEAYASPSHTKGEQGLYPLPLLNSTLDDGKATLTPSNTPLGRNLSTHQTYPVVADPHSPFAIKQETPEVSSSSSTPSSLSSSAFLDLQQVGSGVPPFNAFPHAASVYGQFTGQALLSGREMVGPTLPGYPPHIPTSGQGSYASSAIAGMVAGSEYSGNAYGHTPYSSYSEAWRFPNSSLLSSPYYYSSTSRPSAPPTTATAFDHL

[16] = non-specific 3'UTR reporter inhibition in Clone20-Shn3RL – cell-based, Renilla luciferase, cherry-picked, counter-screen for Shn3 inhibitor project, dose response (AID 624133); format: functional
[17] = Shn3 transcript knock-down in Clone20 cells – cell-based, qPCR, cherry-pick, dose response (AID 743415); format: functional
[18] = Vero cell cytotoxicity, cytotoxicity control for M. tuberculosis inhibitor project, purified and synthesized samples, set 3 (AID 504684); format: functional
[19] = fluconazole-exposed Candida albicans growth modulators – fluorescence, retest, confirmation (AID 2467); format: functional, cell-based
[20] = target: T3, Replicative DNA helicase DnaB (Mycobacterium tuberculosis, UniProt P9WMR3); assay: DnaB intein splicing inhibitors, dose response, biochemical, cell-free fluorescence (AID 449749); format: functional
T3 sequence (P9WMR3 whole entry): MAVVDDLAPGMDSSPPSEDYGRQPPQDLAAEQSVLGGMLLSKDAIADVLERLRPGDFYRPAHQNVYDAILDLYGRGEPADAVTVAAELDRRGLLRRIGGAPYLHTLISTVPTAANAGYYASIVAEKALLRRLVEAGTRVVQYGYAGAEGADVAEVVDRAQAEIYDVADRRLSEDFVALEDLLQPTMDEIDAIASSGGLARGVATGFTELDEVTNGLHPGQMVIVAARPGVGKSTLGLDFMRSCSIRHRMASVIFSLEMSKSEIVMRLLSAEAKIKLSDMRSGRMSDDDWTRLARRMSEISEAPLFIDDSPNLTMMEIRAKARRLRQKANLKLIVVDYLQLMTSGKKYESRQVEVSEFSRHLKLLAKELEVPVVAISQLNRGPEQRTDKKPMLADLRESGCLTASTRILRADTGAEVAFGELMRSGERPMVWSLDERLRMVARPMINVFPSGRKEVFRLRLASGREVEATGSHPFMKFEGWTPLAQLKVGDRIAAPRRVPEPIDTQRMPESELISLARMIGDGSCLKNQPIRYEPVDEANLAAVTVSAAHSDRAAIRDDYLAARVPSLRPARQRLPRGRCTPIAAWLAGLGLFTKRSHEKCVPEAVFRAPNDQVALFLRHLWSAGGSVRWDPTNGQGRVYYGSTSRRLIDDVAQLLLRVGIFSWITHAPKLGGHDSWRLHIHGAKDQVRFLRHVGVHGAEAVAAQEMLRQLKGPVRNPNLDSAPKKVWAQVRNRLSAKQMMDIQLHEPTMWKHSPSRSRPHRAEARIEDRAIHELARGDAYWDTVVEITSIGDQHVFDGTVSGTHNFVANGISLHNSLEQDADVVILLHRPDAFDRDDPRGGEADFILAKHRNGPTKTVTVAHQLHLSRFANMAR

[21] = Fluorescence-based cell-based high throughput dose response assay for inhibitors of the interaction of nucleotide-binding oligomerization domain containing 2 (NOD2) and the receptor-interacting serine-threonine kinase 2 (RIPK2).; format: functional; settings: Homo sapiens
[22] = A Cell Based Secondary Assay to Explore Cytotoxicity in THP-1 Cells of Compounds that Modulate Mycobacterium tuberculosis in Media Containing Glycerol versus Media without Glycerol (2).; format: functional
[23] = target: Protein disulfide-isomerase (Homo sapiens, UniProt P07237); assay: inhibition of PDI-driven insulin aggregation – biochemical, turbidity, absorbance, cherry-picked samples, dose response (AID 602350); format: functional
Sequence of Protein disulfide-isomerase (P07237 whole entry): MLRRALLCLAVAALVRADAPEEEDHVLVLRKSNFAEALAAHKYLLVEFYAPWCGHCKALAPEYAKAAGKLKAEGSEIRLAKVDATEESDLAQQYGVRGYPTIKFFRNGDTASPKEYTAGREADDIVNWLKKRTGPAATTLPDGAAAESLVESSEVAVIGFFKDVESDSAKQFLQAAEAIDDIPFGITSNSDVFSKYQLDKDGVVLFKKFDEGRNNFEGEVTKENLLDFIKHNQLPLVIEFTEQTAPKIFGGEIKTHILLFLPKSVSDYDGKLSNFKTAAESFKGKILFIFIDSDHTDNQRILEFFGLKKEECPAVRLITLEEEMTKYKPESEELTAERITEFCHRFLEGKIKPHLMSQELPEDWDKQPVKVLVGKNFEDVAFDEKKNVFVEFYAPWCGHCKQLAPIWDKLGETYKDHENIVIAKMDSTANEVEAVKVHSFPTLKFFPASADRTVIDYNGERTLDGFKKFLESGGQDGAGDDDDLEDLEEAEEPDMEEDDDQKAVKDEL

[24] = intracellular Trypanosoma cruzi inhibitors in host cells – cell-based, plate reader, cherry-pick samples, set 3, dose response (AID 651818); format: functional;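 note: compounds incubated with infected cells for about four days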
[25] = SAR analysis of small molecule inhibitors of Apaf-1 using a LZ-Caspase-9/Caspase-3 Fluorescent Selectivity assay - Set 2.; format: functional; settings: read-out: IC50_Mean
[26] = target: T4, Apoptotic protease-activating factor 1 (Homo sapiens, UniProt O14727); assay: SAR analysis of small molecule Inhibitors of Apaf-1 in a Fluorescent assay - set 2.; format: functional; settings: read-out: IC50_Mean
T4 sequence (O14727 whole entry): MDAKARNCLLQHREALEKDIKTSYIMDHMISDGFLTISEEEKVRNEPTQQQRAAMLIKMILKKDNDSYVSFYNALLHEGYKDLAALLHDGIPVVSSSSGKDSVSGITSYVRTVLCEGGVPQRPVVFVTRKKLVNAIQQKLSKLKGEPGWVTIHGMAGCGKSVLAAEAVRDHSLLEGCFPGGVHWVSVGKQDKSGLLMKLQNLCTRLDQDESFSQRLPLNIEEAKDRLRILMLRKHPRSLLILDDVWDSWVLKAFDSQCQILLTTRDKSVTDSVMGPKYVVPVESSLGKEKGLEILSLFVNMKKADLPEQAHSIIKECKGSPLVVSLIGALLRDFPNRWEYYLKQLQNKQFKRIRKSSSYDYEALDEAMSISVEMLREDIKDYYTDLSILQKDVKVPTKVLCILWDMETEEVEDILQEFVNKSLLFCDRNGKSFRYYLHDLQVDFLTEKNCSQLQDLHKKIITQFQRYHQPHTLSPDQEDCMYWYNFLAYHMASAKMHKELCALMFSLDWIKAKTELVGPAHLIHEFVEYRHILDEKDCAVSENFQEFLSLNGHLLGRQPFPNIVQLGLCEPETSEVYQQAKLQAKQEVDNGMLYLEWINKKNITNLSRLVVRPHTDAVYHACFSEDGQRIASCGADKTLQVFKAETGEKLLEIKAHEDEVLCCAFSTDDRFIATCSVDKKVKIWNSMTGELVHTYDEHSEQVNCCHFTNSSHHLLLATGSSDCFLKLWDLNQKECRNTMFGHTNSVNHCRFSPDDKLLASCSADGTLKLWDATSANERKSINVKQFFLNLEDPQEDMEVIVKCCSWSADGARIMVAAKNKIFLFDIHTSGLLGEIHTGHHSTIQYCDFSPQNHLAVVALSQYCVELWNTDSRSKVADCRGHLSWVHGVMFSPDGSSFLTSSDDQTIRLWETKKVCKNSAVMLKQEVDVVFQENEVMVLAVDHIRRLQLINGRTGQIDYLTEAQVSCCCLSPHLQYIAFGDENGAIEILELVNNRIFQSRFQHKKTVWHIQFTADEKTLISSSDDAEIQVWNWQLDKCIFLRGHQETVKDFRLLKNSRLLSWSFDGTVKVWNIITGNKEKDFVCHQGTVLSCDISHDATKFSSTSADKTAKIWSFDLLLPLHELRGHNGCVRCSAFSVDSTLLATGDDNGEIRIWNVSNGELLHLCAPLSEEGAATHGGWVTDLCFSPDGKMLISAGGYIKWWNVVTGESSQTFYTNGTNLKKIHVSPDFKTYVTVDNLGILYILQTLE

[27] = SAR analysis of small molecule activators of Apaf-1 using a LZ-Caspase-9/Caspase-3 Fluorescent Selectivity assay - Set 2.; format: functional; settings: read-out: EC50_Mean
[28] = target: T4, Apoptotic protease-activating factor 1; assay: SAR analysis of small molecule Activators of Apaf-1 in a Fluorescent assay - set 2.; format: functional; settings: read-out: EC50_Mean
Aurora kinase B = Aurora kinase B (Homo sapiens, UniProt Q96GD4); format: functional
Sequence of Aurora kinase B (Q96GD4 whole entry): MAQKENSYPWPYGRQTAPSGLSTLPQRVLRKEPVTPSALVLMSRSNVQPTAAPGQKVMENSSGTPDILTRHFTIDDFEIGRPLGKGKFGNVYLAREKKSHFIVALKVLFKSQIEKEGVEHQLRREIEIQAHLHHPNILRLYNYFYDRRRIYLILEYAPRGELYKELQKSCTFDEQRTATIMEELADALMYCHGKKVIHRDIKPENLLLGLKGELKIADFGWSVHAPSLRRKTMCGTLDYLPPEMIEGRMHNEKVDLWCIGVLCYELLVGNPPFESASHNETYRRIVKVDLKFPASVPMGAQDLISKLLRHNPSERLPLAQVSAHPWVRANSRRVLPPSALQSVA

Aurora kinase A = Aurora kinase A (Homo sapiens, UniProt O14965); format: functional;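 note: value from the Navigating the Kinome kinase panel profiling, panel entry STK6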
Sequence of Aurora kinase A (O14965 whole entry): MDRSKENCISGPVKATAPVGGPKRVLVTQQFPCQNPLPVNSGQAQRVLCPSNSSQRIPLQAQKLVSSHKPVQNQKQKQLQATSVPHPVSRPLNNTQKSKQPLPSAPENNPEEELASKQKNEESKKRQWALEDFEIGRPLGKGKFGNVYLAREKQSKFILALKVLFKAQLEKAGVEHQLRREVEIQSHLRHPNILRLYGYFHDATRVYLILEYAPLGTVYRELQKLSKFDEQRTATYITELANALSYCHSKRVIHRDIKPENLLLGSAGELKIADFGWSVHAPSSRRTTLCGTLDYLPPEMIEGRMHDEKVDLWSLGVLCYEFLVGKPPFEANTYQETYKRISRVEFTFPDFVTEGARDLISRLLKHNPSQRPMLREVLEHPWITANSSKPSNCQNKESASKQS

[29] = target: Cell division cycle 7-related protein kinase (Homo sapiens, UniProt O00311); format: functional;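 note: value obtained from a kinome-wide kinase panel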
[30] = target: ALK tyrosine kinase receptor (Homo sapiens, UniProt Q9UM73); format: functional;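 note: ALK tested as one member of a kinase panel screen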
Sequence of ALK tyrosine kinase receptor (Q9UM73 whole entry): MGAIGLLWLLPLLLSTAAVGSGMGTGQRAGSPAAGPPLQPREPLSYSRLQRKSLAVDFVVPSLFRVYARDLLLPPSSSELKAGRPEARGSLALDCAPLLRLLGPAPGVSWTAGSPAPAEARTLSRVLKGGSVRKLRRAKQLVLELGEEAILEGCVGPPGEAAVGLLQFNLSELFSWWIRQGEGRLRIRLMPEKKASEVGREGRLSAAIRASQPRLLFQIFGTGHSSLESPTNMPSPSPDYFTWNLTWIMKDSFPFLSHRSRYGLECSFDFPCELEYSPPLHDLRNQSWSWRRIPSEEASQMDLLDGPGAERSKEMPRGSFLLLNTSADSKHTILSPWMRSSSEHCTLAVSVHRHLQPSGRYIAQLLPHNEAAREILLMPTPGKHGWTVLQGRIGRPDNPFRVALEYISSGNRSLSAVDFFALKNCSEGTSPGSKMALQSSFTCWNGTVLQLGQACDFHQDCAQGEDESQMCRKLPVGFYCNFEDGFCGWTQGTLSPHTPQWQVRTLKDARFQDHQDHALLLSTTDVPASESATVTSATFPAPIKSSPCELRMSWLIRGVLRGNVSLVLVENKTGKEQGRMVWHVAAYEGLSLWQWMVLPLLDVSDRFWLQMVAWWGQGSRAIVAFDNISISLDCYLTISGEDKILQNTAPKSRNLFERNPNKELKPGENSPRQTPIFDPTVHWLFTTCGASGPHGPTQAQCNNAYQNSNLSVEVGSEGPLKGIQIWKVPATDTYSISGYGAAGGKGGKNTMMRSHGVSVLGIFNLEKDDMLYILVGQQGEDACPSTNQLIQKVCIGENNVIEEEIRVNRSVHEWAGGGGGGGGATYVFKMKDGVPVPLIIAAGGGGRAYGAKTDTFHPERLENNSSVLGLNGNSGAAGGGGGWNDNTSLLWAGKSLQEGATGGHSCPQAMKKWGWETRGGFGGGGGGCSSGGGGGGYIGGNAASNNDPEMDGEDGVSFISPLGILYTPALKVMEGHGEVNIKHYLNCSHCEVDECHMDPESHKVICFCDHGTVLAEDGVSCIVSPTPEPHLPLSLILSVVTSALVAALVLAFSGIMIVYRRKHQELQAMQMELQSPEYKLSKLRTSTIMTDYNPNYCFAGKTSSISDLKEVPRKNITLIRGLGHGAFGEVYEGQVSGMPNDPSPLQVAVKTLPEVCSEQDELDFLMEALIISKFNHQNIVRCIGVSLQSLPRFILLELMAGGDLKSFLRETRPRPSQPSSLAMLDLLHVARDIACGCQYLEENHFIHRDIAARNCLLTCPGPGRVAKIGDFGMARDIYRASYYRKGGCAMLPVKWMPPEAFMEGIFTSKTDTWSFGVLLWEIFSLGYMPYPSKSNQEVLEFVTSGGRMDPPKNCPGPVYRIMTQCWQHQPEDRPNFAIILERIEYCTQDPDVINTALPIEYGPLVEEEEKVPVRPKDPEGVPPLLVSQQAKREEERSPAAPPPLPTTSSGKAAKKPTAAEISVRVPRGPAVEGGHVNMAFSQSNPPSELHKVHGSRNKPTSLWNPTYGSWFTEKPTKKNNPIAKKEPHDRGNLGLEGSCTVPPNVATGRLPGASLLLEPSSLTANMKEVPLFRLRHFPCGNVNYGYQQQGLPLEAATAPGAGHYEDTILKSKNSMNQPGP

Sequence of Vascular endothelial growth factor receptor 2 (P35968 whole entry): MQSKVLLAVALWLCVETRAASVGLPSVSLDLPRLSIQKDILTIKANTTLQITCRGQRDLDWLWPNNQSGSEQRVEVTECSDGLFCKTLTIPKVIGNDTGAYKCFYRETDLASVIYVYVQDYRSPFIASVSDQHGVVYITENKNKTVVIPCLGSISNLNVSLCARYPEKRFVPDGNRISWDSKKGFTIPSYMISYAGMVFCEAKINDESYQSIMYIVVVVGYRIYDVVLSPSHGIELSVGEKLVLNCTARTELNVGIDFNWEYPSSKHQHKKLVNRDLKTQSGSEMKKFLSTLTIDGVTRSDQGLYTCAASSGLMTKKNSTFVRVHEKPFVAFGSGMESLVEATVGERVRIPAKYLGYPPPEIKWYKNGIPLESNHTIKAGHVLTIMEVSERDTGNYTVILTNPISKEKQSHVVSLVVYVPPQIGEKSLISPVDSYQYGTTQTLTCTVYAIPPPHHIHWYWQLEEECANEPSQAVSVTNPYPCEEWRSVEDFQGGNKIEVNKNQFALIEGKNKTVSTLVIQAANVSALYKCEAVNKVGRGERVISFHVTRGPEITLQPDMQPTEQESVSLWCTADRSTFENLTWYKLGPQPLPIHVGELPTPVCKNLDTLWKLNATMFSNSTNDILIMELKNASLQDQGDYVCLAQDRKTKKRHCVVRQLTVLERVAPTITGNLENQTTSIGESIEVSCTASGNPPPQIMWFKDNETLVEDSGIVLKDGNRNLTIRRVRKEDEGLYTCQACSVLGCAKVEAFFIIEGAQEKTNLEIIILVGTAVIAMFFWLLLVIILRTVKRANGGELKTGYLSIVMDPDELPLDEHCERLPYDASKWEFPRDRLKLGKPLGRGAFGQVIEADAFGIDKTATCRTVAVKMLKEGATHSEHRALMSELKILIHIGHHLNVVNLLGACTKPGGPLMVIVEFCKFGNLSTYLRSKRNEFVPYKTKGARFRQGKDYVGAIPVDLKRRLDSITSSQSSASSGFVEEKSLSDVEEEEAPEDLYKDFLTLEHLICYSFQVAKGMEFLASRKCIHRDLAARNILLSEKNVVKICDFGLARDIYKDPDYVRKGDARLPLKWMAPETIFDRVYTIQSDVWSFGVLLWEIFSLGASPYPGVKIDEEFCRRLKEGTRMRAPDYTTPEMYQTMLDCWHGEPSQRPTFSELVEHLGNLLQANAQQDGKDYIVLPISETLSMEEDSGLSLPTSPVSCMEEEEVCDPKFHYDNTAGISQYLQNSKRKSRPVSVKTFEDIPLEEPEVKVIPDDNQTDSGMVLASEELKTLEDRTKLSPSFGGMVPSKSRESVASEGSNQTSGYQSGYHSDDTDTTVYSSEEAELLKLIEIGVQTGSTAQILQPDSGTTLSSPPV

SMILES: N#Cc1cnn2c(-c3ccccc3)ccnc12
- Ki [1]: > 100 µM (inactive)
- Ki [2]: > 100 µM (inactive)
- Ki [3]: > 100 µM (inactive)
- Ki [4]: 10 µM (active)

SMILES: CCOC(=O)c1ccc(NC(=O)Cn2ncc(Cl)c(Cl)c2=O)cc1
- AC50 [5]: 46 µM (active)
- IC50 [6]: 9.77 µM (active)
- AC50 [7]: 5.4 µM (active)
- EC50 [8]: 2.06 µM (active)
- CC50 [9]: 8.45 µM (active)
- IC50 [10]: 1.47 µM (active)
- AC50 [11]: 3.69 µM (active)
- AC50 [12]: 2.32 µM (active)
- EC50 (Protein RecA): 3.77 µM (active)
- CC50 [13]: 6.68 µM (active)
- EC50 [14]: 1.96 µM (active)
- EC50 [15]: 2.69 µM (inconclusive)
- AC50 (Paired box protein Pax-8): 6.64 µM (active)
- AC50 [16]: 12.1 µM (active)
- AC50 [17]: 3.72 µM (active)
- CC50 [18]: 3.21 µM (active)
- EC50 [19]: 0.582 µM (active)
- AC50 [20]: 14.1 µM (active)
- IC50 [21]: 1.77 µM (active)
- CC50 [22]: 1.62 µM (active)

SMILES: C[C@H](CO)N1C[C@H](C)[C@H](CN(C)S(=O)(=O)c2ccc(F)cc2)Oc2ccc(NC(=O)Cc3cn(C)c4ccccc34)cc2C1=O
- AC50 [23]: 19.5 µM (active)
- AC50 [24]: 5.29 µM (active)

SMILES: O=C1C(=O)N(Cc2ccc(Cl)c(Cl)c2)c2cc(Cl)ccc21
- IC50 [25]: 43.4 µM (active)
- IC50 [26]: 53.1 µM (active)

SMILES: O=C(O)C1CC(c2c(F)cccc2Cl)=NO1 (stereo not given)
- EC50 [27]: > 100 µM (inactive)
- EC50 [28]: > 100 µM (inactive)

SMILES: CS(=O)(=O)Nc1ccc2c(c1)C(=NO)c1ccccc1-2
- Ki (Aurora kinase B): 0.0398 µM (active)
- Ki [1]: 0.794 µM (active)
- Ki (Aurora kinase A): 0.398 µM (active)

SMILES: OCCc1ccc(Nc2ncnc3[nH]cc(-c4ccccc4)c23)cc1
- Ki [29]: 0.0794 µM (active)
- Ki [30]: 3.98 µM (active)
